# Target: MELK (maternal embryonic leucine zipper kinase) (Homo sapiens, UniProt Q14680)
# Experiment: IMAP kinase assay, high-throughput screen followed by dose-response
# Format: biochemical
# Sequence of MELK (maternal embryonic leucine zipper kinase) (Q14680 whole entry): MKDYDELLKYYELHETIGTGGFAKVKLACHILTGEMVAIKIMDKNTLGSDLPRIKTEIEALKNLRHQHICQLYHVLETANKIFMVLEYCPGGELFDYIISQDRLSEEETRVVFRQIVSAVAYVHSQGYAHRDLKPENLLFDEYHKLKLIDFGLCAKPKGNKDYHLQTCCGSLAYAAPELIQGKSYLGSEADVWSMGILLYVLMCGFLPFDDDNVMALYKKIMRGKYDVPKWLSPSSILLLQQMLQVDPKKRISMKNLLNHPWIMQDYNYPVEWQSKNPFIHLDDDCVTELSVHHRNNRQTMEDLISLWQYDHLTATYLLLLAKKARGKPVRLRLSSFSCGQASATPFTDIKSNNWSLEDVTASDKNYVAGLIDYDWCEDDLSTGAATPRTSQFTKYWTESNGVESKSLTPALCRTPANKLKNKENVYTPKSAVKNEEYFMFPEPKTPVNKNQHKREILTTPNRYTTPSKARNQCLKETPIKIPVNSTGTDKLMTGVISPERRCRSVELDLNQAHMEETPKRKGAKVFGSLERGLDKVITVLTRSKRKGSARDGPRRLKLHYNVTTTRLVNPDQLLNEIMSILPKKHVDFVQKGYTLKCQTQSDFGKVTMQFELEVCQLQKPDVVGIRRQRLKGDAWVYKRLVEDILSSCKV
structure (smiles),measurement,value
"CCOC(=O)c1ccc2ncc(C(=O)OCC)c(Nc3ccc(NC(C)=O)cc3)c2c1 [compound 1, diethyl 4-(4-acetamidophenylamino) quinoline-3,6-dicarboxylate]",IC50,4.8 µM
